In PMC7046148 (Scientific Reports, 2020):

Experiments:
SALL4^G416A = biological target: T1, SALL4^G416A (Homo sapiens, UniProt Q9UJQ4, G416A); assay: SALL4 MFI by high content imaging, XCL-1 SALL4^G416A hiPSCs; type: cell-based; details: SALL4^G416A hiPSC clone, 8 h of treatment
T1 construct: parental hiPSCs were engineered to express a homozygous G416A mutation in the endogenous SALL4 locus; endogenous in cells; host or cells: XCL-1 SALL4^G416A hiPSC clone (1E6), CRISPR/Cas9 knock-in at the endogenous locus
T1 sequence (Q96SW2 whole entry partner): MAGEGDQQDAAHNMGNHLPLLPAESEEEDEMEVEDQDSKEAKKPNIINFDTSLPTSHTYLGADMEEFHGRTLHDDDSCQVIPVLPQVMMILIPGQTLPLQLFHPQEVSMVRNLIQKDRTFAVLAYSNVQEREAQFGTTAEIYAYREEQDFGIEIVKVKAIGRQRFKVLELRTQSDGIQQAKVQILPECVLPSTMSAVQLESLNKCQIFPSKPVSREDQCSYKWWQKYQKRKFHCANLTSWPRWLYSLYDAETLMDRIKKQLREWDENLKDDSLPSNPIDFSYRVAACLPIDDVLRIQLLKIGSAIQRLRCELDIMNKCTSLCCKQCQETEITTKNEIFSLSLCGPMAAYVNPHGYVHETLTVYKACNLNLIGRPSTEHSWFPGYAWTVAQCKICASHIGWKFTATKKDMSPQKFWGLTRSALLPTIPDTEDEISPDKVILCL
T1 sequence (Q16531 whole entry partner): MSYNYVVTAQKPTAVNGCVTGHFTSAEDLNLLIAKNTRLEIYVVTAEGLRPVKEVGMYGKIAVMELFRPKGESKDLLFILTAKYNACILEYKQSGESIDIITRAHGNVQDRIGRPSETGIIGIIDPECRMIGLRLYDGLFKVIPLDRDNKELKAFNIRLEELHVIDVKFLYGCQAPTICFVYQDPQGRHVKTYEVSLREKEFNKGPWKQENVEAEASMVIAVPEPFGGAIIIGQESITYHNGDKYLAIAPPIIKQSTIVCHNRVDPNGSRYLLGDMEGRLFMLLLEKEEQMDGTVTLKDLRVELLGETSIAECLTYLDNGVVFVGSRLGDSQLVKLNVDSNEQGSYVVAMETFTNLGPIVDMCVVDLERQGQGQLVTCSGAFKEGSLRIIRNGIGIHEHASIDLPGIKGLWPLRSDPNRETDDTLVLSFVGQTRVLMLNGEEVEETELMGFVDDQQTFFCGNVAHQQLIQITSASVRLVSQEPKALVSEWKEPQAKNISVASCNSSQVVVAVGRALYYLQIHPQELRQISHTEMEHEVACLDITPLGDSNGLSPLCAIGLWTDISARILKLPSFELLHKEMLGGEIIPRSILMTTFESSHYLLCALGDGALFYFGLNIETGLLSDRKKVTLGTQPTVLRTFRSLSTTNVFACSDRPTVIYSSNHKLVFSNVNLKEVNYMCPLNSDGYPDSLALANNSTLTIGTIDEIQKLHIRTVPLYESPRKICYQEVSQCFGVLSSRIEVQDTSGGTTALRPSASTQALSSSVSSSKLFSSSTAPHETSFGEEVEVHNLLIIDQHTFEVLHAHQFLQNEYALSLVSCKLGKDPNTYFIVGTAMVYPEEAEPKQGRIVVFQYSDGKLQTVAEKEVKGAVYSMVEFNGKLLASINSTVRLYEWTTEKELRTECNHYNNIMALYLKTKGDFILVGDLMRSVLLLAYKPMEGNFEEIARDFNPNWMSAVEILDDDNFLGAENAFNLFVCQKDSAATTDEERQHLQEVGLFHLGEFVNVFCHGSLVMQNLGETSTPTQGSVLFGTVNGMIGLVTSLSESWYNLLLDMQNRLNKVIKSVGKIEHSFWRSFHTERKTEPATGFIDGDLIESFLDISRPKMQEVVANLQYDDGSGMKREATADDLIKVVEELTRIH
T1 sequence (Q9UJQ4 whole entry G416A): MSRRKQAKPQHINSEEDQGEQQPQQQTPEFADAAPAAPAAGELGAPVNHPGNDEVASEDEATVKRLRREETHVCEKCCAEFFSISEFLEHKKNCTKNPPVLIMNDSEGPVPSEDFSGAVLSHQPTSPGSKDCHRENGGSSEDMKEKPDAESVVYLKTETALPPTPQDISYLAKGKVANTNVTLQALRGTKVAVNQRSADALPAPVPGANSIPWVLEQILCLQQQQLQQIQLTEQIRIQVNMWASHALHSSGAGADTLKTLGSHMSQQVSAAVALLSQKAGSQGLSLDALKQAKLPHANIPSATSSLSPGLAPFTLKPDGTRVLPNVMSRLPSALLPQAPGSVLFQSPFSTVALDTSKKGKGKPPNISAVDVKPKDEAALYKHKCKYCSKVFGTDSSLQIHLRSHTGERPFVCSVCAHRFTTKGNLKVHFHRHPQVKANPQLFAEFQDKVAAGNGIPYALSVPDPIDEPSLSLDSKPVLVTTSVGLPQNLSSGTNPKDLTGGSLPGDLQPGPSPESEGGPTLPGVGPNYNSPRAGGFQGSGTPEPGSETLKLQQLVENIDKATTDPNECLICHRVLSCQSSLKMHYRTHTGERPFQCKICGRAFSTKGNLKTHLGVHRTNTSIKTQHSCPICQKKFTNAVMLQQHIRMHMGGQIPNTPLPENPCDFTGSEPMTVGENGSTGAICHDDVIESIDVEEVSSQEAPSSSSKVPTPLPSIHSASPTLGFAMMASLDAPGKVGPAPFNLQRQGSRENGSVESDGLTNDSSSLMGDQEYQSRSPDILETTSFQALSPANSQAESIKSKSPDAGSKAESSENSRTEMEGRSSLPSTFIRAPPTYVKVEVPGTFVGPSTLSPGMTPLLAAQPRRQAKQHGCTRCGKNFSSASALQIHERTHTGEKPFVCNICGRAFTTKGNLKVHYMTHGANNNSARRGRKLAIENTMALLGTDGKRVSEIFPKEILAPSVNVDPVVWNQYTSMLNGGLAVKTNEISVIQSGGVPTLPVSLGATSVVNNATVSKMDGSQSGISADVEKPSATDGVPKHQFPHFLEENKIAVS
From the text: High content imaging analysis of SALL4 immunofluorescence with DAPI counterstaining in hiPSCs. […] Data represent the mean +/− SEM from 2 independent experiments.

Gibco hiPSCs = assay: 3D chondrogenic differentiation after LPM differentiation, DMMB assay for sGAG; type: cell-based, human; details: during 2 d LPM differentiation, then 18 d chondrogenic differentiation; for sGAG/DNA content compared to the DMSO control: thalidomide 20 µM, atRA 3 µM; for reduction of sGAG/DNA content upon chondrogenic differentiation in 3D: thalidomide at 20 µM, atRA at 3 µM
Procedure: For 3D differentiation studies, Gibco hiPSCs were encapsulated in fibrin at 2–4 × 10^6 cells/mL. hiPSCs were passaged with Versene (as described above) and were suspended as small clumps in a solution composed of a 1:4:5:10 dilution of 200 mM CaCl2 in DI water, 50 U/mL human thrombin (Sigma) in 0.1% cell culture BSA in DI water, DPBS, and hiPSC suspension in mTeSR1. The hiPSC suspension was mixed by pipetting, and 0.5 µL droplets of suspended hiPSCs were plated at the bottom of each well of a round-bottom sterile polypropylene plate. hiPSC suspensions were subsequently diluted 5-fold by pipetting up and down in each well with 2 µL of 10 mg/mL human fibrinogen (Sigma) in DPBS (sterile filtered prior to use). Fibrin clot formation proceeded for 10 minutes at room temperature prior to addition of mTeSR-1 and incubation under normal culture conditions overnight. […] For chondrogenic differentiation experiments, cells were cultured in APEL2 + GSKi for the described duration, followed by culture in ACF MesenCult chondrogenic differentiation medium (Stem Cell Technologies) for 17–20 days under normal culture conditions. Encapsulated hiPSCs were characterized by qRT-PCR as described above, except cells were lysed by bead-based homogenization (Bead Mill 4, Thermo Fisher) in buffer RLT that was supplemented with 1% β-mercaptoethanol. RNeasy procedure was carried out per manufacturer’s instructions, including the optional DNase step. Purified RNA samples were stored at −20 °C before analysis using Taqman primer/probes (Thermo Fisher) and fast advanced master mix (Thermo Fisher) on a QuantStudio 5 (Thermo). Samples were compared using normalization to the ACTB in each sample and the control for each experiment using the 2^−ΔΔCT method.
Alternatively, encapsulated hiPSCs were characterized for sulfated glycosaminoglycan (sGAG) content using the dimethylmethylene blue (DMMB) assay protocol[33],[34]. […] After addition of DMMB assay buffer, samples were immediately read at 525 nm, and sGAG composition was calculated in each sample by comparison to a chondroitin sulfate standard that was dissolved in digestion buffer. sGAG content (in µg/mL) was normalized to dsDNA content (in µg/mL) in each sample.
Figure 7 Characterization of hiPSC chondrogenic differentiation in 3D by DMMB assay for sulfated glycosaminoglycans. Chondrogenic differentiation of hiPSCs was assessed by culturing hiPSCs in fibrin gels followed by culture in APEL2/GSKi and subsequent culture in chondrogenic differentiation medium for a total of 21 days in culture after encapsulation. The influence of the duration of LPM differentiation or of chemical treatment during LPM differentiation (for 2 days) on chondrogenic differentiation was assessed by sulfated glycosaminoglycan assay on day 21. […]

[1] = system: human pluripotent stem cells (hPSCs); details: cited from earlier work
hPSC = system: hPSC; parameters: method as in PMID 24154490; details: cited from earlier work

SMILES	effect on SALL4 MFI (SALL4^G416A)	sGAG/DNA content compared to the DMSO control (Gibco hiPSCs)	reduction of sGAG/DNA content upon chondrogenic differentiation in 3D (Gibco hiPSCs)	concentrations with cytotoxicity or functional effects on hPSCs and hPSC-derived mesoderm [1]	non-cytotoxic concentrations at which the definitive endoderm assay was sensitive (hPSC)
O=C1CCC(N2C(=O)c3ccccc3C2=O)C(=O)N1 (centres unmarked) [Thalidomide, thalidomide]	unchanged	decreased sGAG/DNA content	30%	above 100 µM	below 1 µM
CC1=C(/C=C/C(C)=C/C=C/C(C)=C/C(=O)O)C(C)(C)CCC1 [atRA, all-trans retinoic acid]	unchanged	decreased sGAG/DNA content	complete abolishment	–	–
